Measurements: US7776863B2, “Methods of treating HIV infection” (priority 2004, dated 2010)

Experiments:
HIV-1 LAI = experiment: microbe, parasite or virus in culture; conditions: for Combination Indices at % HIV Inhibition (Confidence Interval) 50% / Combination Indices at % HIV Inhibition (Confidence Interval) 75% / Combination Indices at % HIV Inhibition (Confidence Interval) 90% / Overall Result (combined anti-HIV effect): Compound 1 + named drug; for Combination Indices at % HIV Inhibition (Confidence Interval) 50% / Combination Indices at % HIV Inhibition (Confidence Interval) 75% / Combination Indices at % HIV Inhibition (Confidence Interval) 90%: 95% confidence interval in parentheses; for Overall Result (combined anti-HIV effect): all ratios, MT-2 cells, HIV-1 LAI; for EC50: Human immunodeficiency virus 1, MT2, 120 h
Description: (§1) Virus and cell lines. The T-cell lines, MT-2 and PM-1 were obtained through the AIDS Research and Reference Reagent Program, NIAID, and were contributed by Dr. D. Richman and Dr. R. Gallo, respectively. Both cell lines were cultured in RPMI 1640 medium supplemented with 10% fetal bovine serum, 2 mM L-glutamine and sub-cultured twice a week. The LAI strain of HIV-1 was obtained from the Fred Hutchinson Cancer Research Center, and the Bal strain was from NIH. Both virus stocks were amplified and titered in MT-2 cells (LAI) and PM-1 cells (Bal) using a virus infectivity assay.
(§2) Drug Susceptibility and Cytotoxicity Assays. For drug susceptibility assays, MT-2 cells were infected with HIV-1 LAI (or PM-1 cells with HIV-1 Bal) at an MOI of 0.005, and seeded into 96-well microtiter plates (0.1×10^6 cells/ml) containing serial dilutions of test compounds. […] Each drug ratio consisted of an array of 3-fold serial dilutions, and was performed in quadruplicate. The plates were incubated at 37° C./5% CO2. The MT-2 cells infected with HIV-1 LAI were incubated for 5 days. On day-five post-infection, 20 μl from each well was harvested and quantitated by a reverse transcriptase (RT) assay, or in samples involving non-nucleoside RT inhibitors, an MTS assay. The PM-1 cells infected with HIV-1 Bal and used for studying the combinations with CCR5 inhibitors were incubated for six days. On day-six post-infection, 20 μl from each well was harvested, 20- and 50-fold diluted and quantitated by p24 assay. Cytotoxicity assays were performed using uninfected cells, exposed to the same drug combinations, and incubated for six days. Cell viability was determined by an MTS assay. The CC50 values were calculated by using the exponential form of the median effect equation as mentioned below for calculation of EC50.
(§3) Analysis of Drug Combination Effects. For determination of CI values, drugs were diluted in a fixed ratio and multiple ratios were analyzed. The drug serial dilutions spanned a range of concentrations near the EC50 value of each compound, so that equivalent antiviral activities could be compared. Concentration-response curves were estimated for each individual drug and every combination using the median-effect equation. The equation was fit using a nonlinear regression routine (Proc Nlin) in PC SAS version 8.01 (SAS Institute Inc., SAS Version 8.01, Cary, N.C.: SAS Institute Inc., 1990).
(§4) In this equation, Fa stands for “fraction affected,” and represents the fraction of the viral load that has been inactivated. […] ED50 is drug concentration that is expected to reduce the amount of virus by 50%, and m is a parameter that reflects the slope of the concentration-response curve.
(§5) To assess antiviral effects of different drug combination treatments, combination indices (CIs) were calculated according to Chou and Rideout. The combination index was computed as CI=[D]1/[Dm]1+[D]2/[Dm]2
(§6) In this equation [Dm]1 and [Dm]2 are the concentrations of drugs that would individually produce a specific level of effect, while [D]1 and [D]2 are the concentrations of drugs in combination that would produce the same level of effect.
(§7) Theoretically, additivity is implied if the CI is equal to one, synergy if the CI is less than one, and antagonism if the CI is greater than one. […] At best, we can construct a range that contains the likely values for the CI, given the noise in the data. In this report, these ranges are reported in parentheses next to each point estimate of the CI. […] If the range fell entirely above 1.0, we would infer antagonistic behavior. If the range were to include 1.0, we would infer additivity.
(§8) In carrying out the combination experiments below, the EC50 for Compound 1 and each comparator compound was determined during the course of each study, and used in the subsequent data analysis.

uninfected cells = experiment: Cytotoxicity assay of drug combinations, uninfected cells, MTS assay; assay type: cell-based; conditions: Compound 1 + other drug at the highest concentrations tested, 6 days
Description: as §2, with “Assays.” for “Assays. For drug susceptibility assays, MT-2 cells were infected with HIV-1 LAI (or PM-1 cells with HIV-1 Bal) at an MOI of 0.005, and seeded into 96-well microtiter plates (0.1×10^6 cells/ml) containing serial dilutions of test compounds.”, “The MT-2 cells infected with HIV-1 LAI were incubated for 5 days.” left out

HIV-1 Bal = experiment: Drug susceptibility assay, PM-1 cells infected with HIV-1 Bal, combinations with CCR5 inhibitors (p24 assay); assay type: cell-based; conditions: for Combination Indices at % HIV Inhibition (Confidence Interval) 50% / Combination Indices at % HIV Inhibition (Confidence Interval) 75% / Combination Indices at % HIV Inhibition (Confidence Interval) 90%: 95% confidence interval in parentheses
Description: as §1, §2, §3, §4, §5, §6, §7, §8

[1] = EC50 ratio 1:1 (Compound 1:comparator)
[2] = EC50 ratio 1:2.5 (Compound 1:comparator)
[3] = EC50 ratio 2.5:1 (Compound 1:comparator)
[4] = Compound 1 + CCR5 inhibitor, EC50 ratio 1:1, PM-1 cells, HIV-1 Bal
[5] = Compound 1 + CCR5 inhibitor, EC50 ratio 1:2.5, PM-1 cells, HIV-1 Bal
[6] = Compound 1 + CCR5 inhibitor, EC50 ratio 2.5:1, PM-1 cells, HIV-1 Bal

| Compound | Combination Indices at % HIV Inhibition (Confidence Interval) 50% (HIV-1 LAI; [1]) | Combination Indices at % HIV Inhibition (Confidence Interval) 75% (HIV-1 LAI; [1]) | Combination Indices at % HIV Inhibition (Confidence Interval) 90% (HIV-1 LAI; [1]) | Combination Indices at % HIV Inhibition (Confidence Interval) 50% (HIV-1 LAI; [2]) | Combination Indices at % HIV Inhibition (Confidence Interval) 75% (HIV-1 LAI; [2]) | Combination Indices at % HIV Inhibition (Confidence Interval) 90% (HIV-1 LAI; [2]) | Combination Indices at % HIV Inhibition (Confidence Interval) 50% (HIV-1 LAI; [3]) | Combination Indices at % HIV Inhibition (Confidence Interval) 75% (HIV-1 LAI; [3]) | Combination Indices at % HIV Inhibition (Confidence Interval) 90% (HIV-1 LAI; [3]) | Overall Result (combined anti-HIV effect) (HIV-1 LAI) | EC50 (HIV-1 LAI) [µM] | also measured |
| --- | --- | --- | --- | --- | --- | --- | --- | --- | --- | --- | --- | --- |
| CON(Cc1ccc(F)cc1)C(=O)C=C(O)C(=O)O [Compound 2, 3-[(4-Fluorobenzyl)methoxycarbamoyl]-2-hydroxyacrylic acid] | 0.48 (0.39, 0.58) | 0.51 (0.37, 0.65) | 0.54 (0.31, 0.76) | 0.44 (0.36, 0.53) | 0.51 (0.37, 0.65) | 0.59 (0.34, 0.85) | 0.50 (0.36, 0.63) | 0.70 (0.44, 0.97) | 1.00 (0.41, 1.59) | moderate synergistic | 0.079 | Overall Result (combined anti-HIV effect) (HIV-1 LAI; listed as BMS-538203): Moderate-; Cytotoxicity of the drug combination (uninfected cells): No significant cytotoxicity |
| CCO/N=C(\c1ccc(Br)cc1)C1CCN(C2(C)CCN(C(=O)c3c(C)cc[n+]([O-])c3C)CC2)CC1 [SchC] |  |  |  |  |  |  |  |  |  |  |  | Combination Indices at % HIV Inhibition (Confidence Interval) 50% (HIV-1 Bal; [4]): 0.19 (0.14, 0.25); Combination Indices at % HIV Inhibition (Confidence Interval) 75% (HIV-1 Bal; [4]): 0.46 (0.29, 0.63); Combination Indices at % HIV Inhibition (Confidence Interval) 90% (HIV-1 Bal; [4]): 1.12 (0.4, 1.83); Combination Indices at % HIV Inhibition (Confidence Interval) 50% (HIV-1 Bal; [5]): 0.50 (0.38, 0.61); Combination Indices at % HIV Inhibition (Confidence Interval) 75% (HIV-1 Bal; [5]): 0.92 (0.64, 1.21); Combination Indices at % HIV Inhibition (Confidence Interval) 90% (HIV-1 Bal; [5]): 1.74 (0.83, 2.65); Combination Indices at % HIV Inhibition (Confidence Interval) 50% (HIV-1 Bal; [6]): 0.08 (0.05, 0.11); Combination Indices at % HIV Inhibition (Confidence Interval) 75% (HIV-1 Bal; [6]): 0.21 (0.14, 0.28); Combination Indices at % HIV Inhibition (Confidence Interval) 90% (HIV-1 Bal; [6]): 0.54 (0.21, 0.88); Overall Result (combined anti-HIV effect) (HIV-1 Bal; Compound 1 + CCR5 inhibitor, all ratios, PM-1 cells, HIV-1 Bal): Additive-; EC50 (HIV-1 Bal; single drug, PM-1 cells infected with HIV-1 Bal, 6 days, p24 assay): 0.0009 µM |
| Cc1cn([C@H]2C=C[C@@H](CO)O2)c(=O)[nH]c1=O [Stavudine, stavudine] | 0.52 (0.40, 0.64) | 0.60 (0.41, 0.80) | 0.75 (0.36, 1.14) | 0.38 (0.31, 0.45) | 0.37 (0.28, 0.46) | 0.40 (0.23, 0.56) | 0.69 (0.51, 0.88) | 0.78 (0.49, 1.07) | 0.92 (0.36, 1.48) | Moderate- | 0.072 |  |
